In PubChem BioAssay (NCI) one finds TGI and GI50 data, which are given here for 24 compounds.

Structures are written as SMILES.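 Dose response: 5 concentrations. Exposure: 48 h. Format: 96-well plates. Endpoint: linear interpolation; highest concentration if not reached. GI50: concentration for 50% inhibition of growth. TGI denotes the concentration required for complete inhibition of growth.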

In one assay the test system is MOLT-4 leukemia. As to the kind of experiment: DTP human tumour cell line panel, 48 h.
For `CN(C)c1ccc2c(NCCCCCCNc3ccnc4cc(N(C)C)ccc34)ccnc2c1`, the TGI – broadly, the concentration giving total growth inhibition – is over 100 µM.

Take `CCN1C(=O)N(CC)C2C1NN=c1s/c(=C3\C(=O)N(C(C)C)c4ccccc43)c(=O)n12` (configuration not stated): the GI50 (in general, the concentration that inhibits growth by half) was 379 nM and the TGI was over 100 µM.

As for `Nc1cc(=O)[nH]c(SC2=NC(N)CC(O)C2)n1` (configuration not stated), the TGI is over 100 µM.

Take `CC(=O)[O][Pb]([O]C(C)=O)([c]1ccccc1)[c]1ccccc1`: the GI50 was 35000 nM and the TGI was over 100 µM.

Regarding `CN1CCc2c1nc(-c1ccccc1)c1c2N(C)CC1`, the TGI is over 100 µM.

Turning to `CCC[CH2][Sn]([CH2]CCC)([O]C(C)=O)[O]C(C)=O`, the GI50 is 505 nM and the TGI stood at 4.59 µM.

As for `COC(=O)CCC(=O)N1Cc2cc(C)ccc2N(C(=O)CCC(=O)OC)Cc2cc(C)ccc21`, the TGI is over 100 µM.

Compound `C=C1C(=O)O[C@H]2C[C@@H](C)[C@@H]3CC(=O)OC[C@@]3(C)CC12` (some centres not stated) gave a TGI of 57.3 µM.

The compound `CS(=O)(=O)CC1=Nc2nnc(CCCCCCCc3nnc4n3C(=O)C(CS(C)(=O)=O)=N4)n2C1=O` yielded a TGI of over 100 µM.

Take `COc1ccccc1[N-]C(C1=C([O-])c2ccccc2C1=O)c1ccccc1.COc1ccccc1[N-]C(C1=C([O-])c2ccccc2C1=O)c1ccccc1.[Cu+2]` (configuration not stated): the GI50 is 5980 nM and the TGI was over 100 µM.

As for `O=C(NCCCCCCNC(=O)c1cccc2ccccc12)c1cccc2ccccc12`, the TGI is over 100 µM.

The compound `COC12C=CC(CC1)c1c(O)ccc(O)c12` (configuration not stated) came in with a TGI of over 79 µM.

With `Nc1ncnc2sc(=S)c3c(c12)CCC3`, the GI50 was 23200 nM and the TGI amounted to 69.7 µM.

As to `CC1=C2CCCC2C/C(=N/Nc2ccc([N+](=O)[O-])cc2[N+](=O)[O-])CC1` (configuration not stated), the TGI was over 100 µM.

Take `COc1cc2cc(Oc3ccc(NC(=O)Nc4ccc(Cl)c(C(F)(F)F)c4)cc3)c(C)nc2cc1OCCN1CCCCC1`: the GI50 was 1100 nM and the TGI came out at 2.71 µM.

Consider `C=CCC(N[C@H](CO)C(C)C)c1cn(C(=O)OCC)c2ccccc12` (some centres not stated), for which the GI50 was 15400 nM and the TGI amounted to 34.7 µM.

In the case of `CC1CC2C(=O)NC(=O)C2c2[nH]c3ccccc3c21` (configuration not stated), the TGI is over 100 µM.

`Cc1ccc2c(c1)C1(C)OC(CC(N)C1O)O2` (configuration not stated): the TGI was over 100 µM.

With `COC(=O)[C@@H]1CSC(=S)N1C(=O)C[C@H]1CC=CC[C@H]1CC(=O)Sc1ccccc1`, the total growth inhibition concentration (TGI) worked out at 16.7 µM.

Turning to `COc1cc(Cn2cc3c(c2)-c2oncc2CC3)cc(OC)c1OC`, the GI50 is 33.8 nM and the TGI is 13.1 µM.

For `CC1(Sc2ccccc2)CN(Cc2ccccc2)C1=O` (configuration not stated), the TGI is over 100 µM.

Turning to `C=C1C(=O)OC2CC3(C)C=CC(=O)C(=C)C3CC12` (configuration not stated), the TGI was found to be 3.52 µM.

For `COc1cccc(OC(=O)c2ccccc2Nc2ccnc(C(F)(F)F)c2)c1`, the GI50 was 692 nM and the TGI came to 4.29 µM.

In the case of `CCOP(=O)(OCC)C1CCCCOC1=O` (configuration not stated), the TGI is over 100 µM.

A further assay relates to SR leukemia. As to the kind of experiment: DTP human tumour cell line panel, 48 h.
`CN(C)c1ccc2c(NCCCCCCNc3ccnc4cc(N(C)C)ccc34)ccnc2c1`: the TGI was over 100 µM.

In the case of `CCN1C(=O)N(CC)C2C1NN=c1s/c(=C3\C(=O)N(C(C)C)c4ccccc43)c(=O)n12` (configuration not stated), the GI50 was 426 nM and the TGI was over 100 µM.

For `Nc1cc(=O)[nH]c(SC2=NC(N)CC(O)C2)n1` (configuration not stated), the TGI was over 100 µM.

For the compound `CC(=O)[O][Pb]([O]C(C)=O)([c]1ccccc1)[c]1ccccc1`, the GI50 is 6220 nM and the TGI was over 100 µM.

As for `CCC[CH2][Sn]([CH2]CCC)([O]C(C)=O)[O]C(C)=O`, the GI50 is 571 nM and the TGI amounted to 4.72 µM.

Compound `COC(=O)CCC(=O)N1Cc2cc(C)ccc2N(C(=O)CCC(=O)OC)Cc2cc(C)ccc21` returned a TGI of over 100 µM.

For `CS(=O)(=O)CC1=Nc2nnc(CCCCCCCc3nnc4n3C(=O)C(CS(C)(=O)=O)=N4)n2C1=O`, the TGI is over 100 µM.

Take `COc1ccccc1[N-]C(C1=C([O-])c2ccccc2C1=O)c1ccccc1.COc1ccccc1[N-]C(C1=C([O-])c2ccccc2C1=O)c1ccccc1.[Cu+2]` (configuration not stated): the GI50 is 8580 nM and the TGI is over 100 µM.

`O=C(NCCCCCCNC(=O)c1cccc2ccccc12)c1cccc2ccccc12` came in with a TGI of over 100 µM.

As to `COC12C=CC(CC1)c1c(O)ccc(O)c12` (configuration not stated), the TGI worked out at 36.3 µM.

Regarding `CC1=C2CCCC2C/C(=N/Nc2ccc([N+](=O)[O-])cc2[N+](=O)[O-])CC1` (configuration not stated), the TGI was over 100 µM.

Take `COc1cc2cc(Oc3ccc(NC(=O)Nc4ccc(Cl)c(C(F)(F)F)c4)cc3)c(C)nc2cc1OCCN1CCCCC1`: the GI50 is 486 nM and the TGI turned out to be 2.37 µM.

`CC1CC2C(=O)NC(=O)C2c2[nH]c3ccccc3c21` (configuration not stated) came in with a TGI of over 100 µM.

In the case of `COC(=O)[C@@H]1CSC(=S)N1C(=O)C[C@H]1CC=CC[C@H]1CC(=O)Sc1ccccc1`, the TGI was 27.9 µM.

Consider `COc1cc(Cn2cc3c(c2)-c2oncc2CC3)cc(OC)c1OC`, for which the GI50 is 28.6 nM and the TGI is over 100 µM.

Take `C=C1C(=O)OC2CC3(C)C=CC(=O)C(=C)C3CC12` (configuration not stated): the total growth inhibition concentration (TGI) amounted to 12.4 µM.

A further assay concerns SW-620 colon. As to the kind of experiment: DTP human tumour cell line panel, 48 h.
On to `CN(C)c1ccc2c(NCCCCCCNc3ccnc4cc(N(C)C)ccc34)ccnc2c1`, for which the TGI was over 100 µM.

On to `CCN1C(=O)N(CC)C2C1NN=c1s/c(=C3\C(=O)N(C(C)C)c4ccccc43)c(=O)n12` (configuration not stated), for which the GI50 is 417 nM and the TGI was over 100 µM.

Compound `Nc1cc(=O)[nH]c(SC2=NC(N)CC(O)C2)n1` (configuration not stated) came in with a TGI of over 100 µM.

In the case of `CC(=O)[O][Pb]([O]C(C)=O)([c]1ccccc1)[c]1ccccc1`, the GI50 was 5420 nM and the TGI was over 100 µM.

In turn, `CN1CCc2c1nc(-c1ccccc1)c1c2N(C)CC1` registered a TGI of over 100 µM.

For `CCC[CH2][Sn]([CH2]CCC)([O]C(C)=O)[O]C(C)=O`, the GI50 is 694 nM and the TGI is 2.65 µM.

Take `COC(=O)CCC(=O)N1Cc2cc(C)ccc2N(C(=O)CCC(=O)OC)Cc2cc(C)ccc21`: the TGI was over 100 µM.

On to `C=C1C(=O)O[C@H]2C[C@@H](C)[C@@H]3CC(=O)OC[C@@]3(C)CC12` (some centres not stated), for which the TGI amounted to 35.1 µM.

As to `CS(=O)(=O)CC1=Nc2nnc(CCCCCCCc3nnc4n3C(=O)C(CS(C)(=O)=O)=N4)n2C1=O`, the TGI was over 100 µM.
